{"source": "patent US20090227666A1", "about": "“Enhancing Disease Resistance In An Animal” (Hill's Pet Nutrition, Inc., priority 2007, published 2009)", "origin": "cited, not measured here", "system": "CD8+ T cell population", "details": "moderate (101 mg/kg of food) or high (447 mg/kg of food) versus low-normal (17 mg/kg of food)"}
{"compound": "CC(=O)Oc1c(C)c(C)c2c(c1C)CCC(C)(CCC[C@H](C)CCC[C@H](C)CCCC(C)C)O2", "note": "(stereo partly drawn) [α-tocopheryl acetate]", "values": [{"measurement": "percentages of CD8+ cells", "result": "increased percentages of CD8+ cells"}]}
